Experimental data taken from patent publication US9078874B2, “Composition and method for treating cognitive impairments in down syndrom subjects” (Centre National De La Recherche Scientifique—CNRS, priority 2009, dated 2015).

Legend:
[1] = test system: euploid and Ts65Dn mice; experiment: Novel object recognition (NOR) task; type: in vivo
Description: The testing protocol is a variant of the testing method according to Fernandez et al. 2007. The Object recognition protocol used to study learning and memory was performed on a 10 minutes period between the first presentation of the objects and the change of one object. Euploid and Ts65Dn mice were tested with or without α5IA treatment. The apparatus consisted of a black square arena (50×50 cm) located in a room under weak controlled luminosity (4-6 Lux) and constant 60 dB white noise. The first day, all mice (16 euploid and 16 Ts65Dn mice) were handled by the experimenter in the animal facility 2×3 min to familiarize them with human contact. On day 2, mice were placed for 20 min in the empty arena for getting used to the apparatus and test room. On day 3, four identical objects were placed symmetrically in the corners of the arena, 14 cm from the side walls. […]
During all open field sessions, mice were monitored using a videotracking system (Any-Maze™). Object exploration was manually scored with an ethological keyboard and defined as the orientation of the nose to the object at a distance<6 cm. […]
For the retention phase, the percent of time exploring familiar vs. novel objects was calculated to assess memory performance (a score of 50% corresponding to equal exploration times of the two objects indicated no object memory). […]
Discrimination ratio was calculated using the formula: […]

[2] = test system: GABAA receptors containing either an α1, α2, α3 or α5 subunit; settings: cited from earlier work

For `Cc1cc(-c2nnc3c4ccccc4c(OCc4cn(C)nn4)nn23)no1` [α5IA, 3-(5-methylisoxazol-3-yl)-6-[(1-methyl-1,2,3-triazol-4-yl)methyloxy]-1,2,4-triazolo[3,4-a]phthalazine], the “object recognition performance compared to wild-type mice receiving a placebo” value ([1]; Ts65Dn mice) is listed as “above-normal object recognition performance”, the recognition performance ([1]; i.p. 5 mg/kg, 30 min before acquisition, both euploid and Ts65Dn mice) is listed as “largely improved their recognition performance” and the “binding affinity at the benzodiazepine binding site” value [2] is listed as “equal affinity”.
